In ChEMBL document CHEMBL3046875, “Potential cytotoxic and apoptosis inducing agents: synthesis and evaluation of methoxy-substituted chalcones against human lung and cervical cancers” (Med Chem Res, 2013):

Tests used:
[1] = system: HeLa; test: Cell cycle arrest in Homo sapiens (human) HeLa cells assessed as accumulation at sub G0 phase at IC50 after 48 hr by propidium iodide staining-based flow cytometric analysis (reference value: 0.88%); format: functional
[2] = system: HeLa; test: Cytotoxicity against Homo sapiens (human) HeLa cells assessed as cell viability after 72 hr by MTT assay; format: functional, cell-based
[3] = system: HeLa; test: Cell cycle arrest in Homo sapiens (human) HeLa cells assessed as accumulation at S phase at IC50 after 48 hr by propidium iodide staining-based flow cytometric analysis (reference value: 14.14%); format: functional
[4] = system: HeLa; test: Cell cycle arrest in Homo sapiens (human) HeLa cells assessed as accumulation at G0/G1 phase at IC50 after 48 hr by propidium iodide staining-based flow cytometric analysis (reference value: 63.3%); format: functional
[5] = system: A549; test: Cell cycle arrest in Homo sapiens (human) A549 cells assessed as accumulation at sub G0 phase at IC50 after 48 hr by propidium iodide staining-based flow cytometric analysis (reference value: 1.37%); format: functional
[6] = system: A549; test: Cell cycle arrest in Homo sapiens (human) A549 cells assessed as accumulation at G2/M phase at IC50 after 48 hr by propidium iodide staining-based flow cytometric analysis (reference value: 11.03%); format: functional
[7] = system: A549; test: Cell cycle arrest in Homo sapiens (human) A549 cells assessed as accumulation at S phase at IC50 after 48 hr by propidium iodide staining-based flow cytometric analysis (reference value: 12.83%); format: functional
[8] = system: A549; test: Cell cycle arrest in Homo sapiens (human) A549 cells assessed as accumulation at G0/G1 phase at IC50 after 48 hr by propidium iodide staining-based flow cytometric analysis (reference value: 74.9%); format: functional
[9] = system: A549; test: Cytotoxicity against Homo sapiens (human) A549 cells assessed as cell viability after 72 hr by MTT assay; format: functional, cell-based; settings: A549, 72 h
[10] = system: HCT-15; test: Cytotoxicity against Homo sapiens (human) HCT15 cells assessed as cell viability after 72 hr by MTT assay; format: functional, cell-based; settings: HCT-15, 72 h
[11] = system: HeLa; test: Cell cycle arrest in Homo sapiens (human) HeLa cells assessed as accumulation at G2/M phase at IC50 after 48 hr by propidium iodide staining-based flow cytometric analysis (reference value: 22.68%); format: functional
[12] = system: HeLa; test: Cell cycle arrest in Homo sapiens (human) HeLa cells assessed as accumulation at G2/M phase at 2 uM after 48 hr by propidium iodide staining-based flow cytometric analysis (reference value: 22.68%); format: functional
[13] = system: A549; test: Cell cycle arrest in Homo sapiens (human) A549 cells assessed as accumulation at G2/M phase at 2 uM after 48 hr by propidium iodide staining-based flow cytometric analysis (reference value: 11.03%); format: functional
[14] = system: HeLa; test: Cell cycle arrest in Homo sapiens (human) HeLa cells assessed as accumulation at S phase at 2 uM after 48 hr by propidium iodide staining-based flow cytometric analysis (reference value: 14.14%); format: functional
[15] = system: HeLa; test: Cell cycle arrest in Homo sapiens (human) HeLa cells assessed as accumulation at sub G0 phase at 2 uM after 48 hr by propidium iodide staining-based flow cytometric analysis (reference value: 0.88%); format: functional
[16] = system: HeLa; test: Cell cycle arrest in Homo sapiens (human) HeLa cells assessed as accumulation at G0/G1 phase at 2 uM after 48 hr by propidium iodide staining-based flow cytometric analysis (reference value: 63.3%); format: functional
[17] = system: A549; test: Cell cycle arrest in Homo sapiens (human) A549 cells assessed as accumulation at sub G0 phase at 2 uM after 48 hr by propidium iodide staining-based flow cytometric analysis (reference value: 1.37%); format: functional

| SMILES | IC50 [2] [nM] | IC50 [9] [nM] | IC50 [10] [nM] | further results |
| --- | --- | --- | --- | --- |
| COc1ccc(OC)c(/C=C/C(=O)c2ccccc2F)c1 | 96.1 | 114 | 61.1 | Activity [1]: 27.52%; Activity [3]: 0.94%; Activity [4]: 7.9%; Activity [5]: 20.31%; Activity [6]: 16.84%; Activity [7]: 89.78%; Activity [8]: 1.36%; Activity [11]: 35.28% |
| COc1ccc(C(=O)/C=C/c2cc(OC)c(OC)c(OC)c2)c(F)c1 | 144 | 108 | 50.5 | – |
| COc1cc(OC)c(/C=C/C(=O)c2ccccc2F)c(OC)c1 | 50.6 | > 100000 | 79 | – |
| COc1ccc(C(=O)/C=C/c2c(OC)cc(OC)cc2OC)c(F)c1 | > 100000 | > 100000 | > 100000 | – |
| COc1cc(OC)c(OC)cc1/C=C/C(=O)c1ccccc1F | 293 | 79 | 55.3 | – |
| COc1cc(/C=C/C(=O)c2ccccc2F)cc(OC)c1OC | 228 | > 100000 | 134 | – |
| COc1cc(/C=C/C(=O)c2ccc(OC)cc2F)cc(OC)c1 | 243 | 101 | 55.3 | – |
| COc1ccc(/C=C/C(=O)c2ccccc2F)c(OC)c1 | 175 | 87.3 | 55.9 | Activity [1]: 29.37%; Activity [3]: 12.64%; Activity [4]: 22.61%; Activity [5]: 20.48%; Activity [6]: 6.18%; Activity [7]: 59.98%; Activity [8]: 5.64%; Activity [11]: 56.9% |
| COc1cccc2c1C(=O)c1c(O)c3c(c(O)c1C2=O)C[C@@](O)(C(=O)CO)C[C@@H]3O[C@H]1C[C@H](N)[C@H](O)[C@H](C)O1.Cl [DOXORUBICIN HYDROCHLORIDE] | – | – | – | Activity [12]: 36.19%; Activity [13]: 0.98%; Activity [14]: 55.74%; Activity [15]: 61.55%; Activity [16]: 30.86%; Activity [17]: 1.34% |
| COc1ccc(C(=O)/C=C/c2ccc(OC)c(OC)c2OC)c(F)c1 | 211 | 108 | 31.7 | – |
| COc1ccc(C(=O)/C=C/c2ccc(OC)cc2OC)c(F)c1 | 260 | > 100000 | 72.2 | – |
| COc1cc(/C=C/C(=O)c2ccccc2F)cc(OC)c1 | 62.9 | 43.6 | 20.9 | Activity [1]: 9.11%; Activity [3]: 18.21%; Activity [4]: 70.2%; Activity [5]: 61.59%; Activity [6]: 2.22%; Activity [7]: 9.85%; Activity [8]: 2.66%; Activity [11]: 26.68% |
| COc1ccc(C(=O)/C=C/c2cc(OC)c(OC)cc2OC)c(F)c1 | > 100000 | 202 | 72.2 | – |
